pIC50: −log10 of the molar value.
How the values were obtained:
[1] = target: T1, CDK12 protein level in CAL-120 breast cancer cells (Homo sapiens, UniProt Q9NYV4); assay: CDK12 protein level: Protein Simple (CDK12, CAL-120); type: cell-based; conditions: CAL-120 cells, 18 h with compound, CDK12/HSP90 peak area ratio vs vehicle, median, read-out: CDK12 protein level in CAL-120 breast ca cells, DC50-[mol/l] (median)
T1 construct: endogenous in cells; host or cells: CAL-120 human breast cancer cells (DSMZ ACC 459)
T1 sequence (Q9NYV4 whole entry): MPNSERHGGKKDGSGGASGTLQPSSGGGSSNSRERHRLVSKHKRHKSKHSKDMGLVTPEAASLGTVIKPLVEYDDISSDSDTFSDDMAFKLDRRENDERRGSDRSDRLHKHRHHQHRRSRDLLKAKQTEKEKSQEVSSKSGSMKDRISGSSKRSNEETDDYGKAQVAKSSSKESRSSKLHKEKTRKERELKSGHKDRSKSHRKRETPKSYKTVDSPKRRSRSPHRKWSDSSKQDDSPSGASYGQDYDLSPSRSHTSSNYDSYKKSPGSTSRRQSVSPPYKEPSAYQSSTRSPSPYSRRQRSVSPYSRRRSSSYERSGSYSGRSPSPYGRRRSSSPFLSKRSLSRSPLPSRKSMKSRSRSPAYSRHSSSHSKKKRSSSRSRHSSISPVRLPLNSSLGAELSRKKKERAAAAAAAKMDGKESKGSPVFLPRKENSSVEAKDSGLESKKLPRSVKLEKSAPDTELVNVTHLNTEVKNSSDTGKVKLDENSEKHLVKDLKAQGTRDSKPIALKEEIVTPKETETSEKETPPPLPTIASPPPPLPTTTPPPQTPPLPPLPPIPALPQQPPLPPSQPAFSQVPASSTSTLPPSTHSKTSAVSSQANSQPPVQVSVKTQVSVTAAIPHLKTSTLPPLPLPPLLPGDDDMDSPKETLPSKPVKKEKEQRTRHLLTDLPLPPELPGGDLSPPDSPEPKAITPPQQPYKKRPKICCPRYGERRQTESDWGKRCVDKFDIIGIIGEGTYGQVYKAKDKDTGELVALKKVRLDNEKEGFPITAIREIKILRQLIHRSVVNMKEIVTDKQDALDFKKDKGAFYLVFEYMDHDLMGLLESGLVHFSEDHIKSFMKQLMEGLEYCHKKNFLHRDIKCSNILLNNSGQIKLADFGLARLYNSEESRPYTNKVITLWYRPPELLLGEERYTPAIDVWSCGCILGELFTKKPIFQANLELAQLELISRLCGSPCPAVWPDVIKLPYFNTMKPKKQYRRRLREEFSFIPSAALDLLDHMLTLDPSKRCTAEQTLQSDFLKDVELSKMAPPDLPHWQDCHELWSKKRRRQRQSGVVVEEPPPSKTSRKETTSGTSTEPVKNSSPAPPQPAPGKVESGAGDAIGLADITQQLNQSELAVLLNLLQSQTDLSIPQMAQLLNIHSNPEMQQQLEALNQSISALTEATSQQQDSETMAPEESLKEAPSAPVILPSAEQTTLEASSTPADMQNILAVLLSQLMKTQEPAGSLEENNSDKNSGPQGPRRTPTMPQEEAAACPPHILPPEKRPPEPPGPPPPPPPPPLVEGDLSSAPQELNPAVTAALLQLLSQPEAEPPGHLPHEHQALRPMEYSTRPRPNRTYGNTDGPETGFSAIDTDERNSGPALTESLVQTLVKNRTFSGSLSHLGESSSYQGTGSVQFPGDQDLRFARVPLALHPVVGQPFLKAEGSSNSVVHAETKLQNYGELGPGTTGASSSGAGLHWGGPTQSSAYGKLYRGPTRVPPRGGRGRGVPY
T1 sequence (O75909 whole entry partner): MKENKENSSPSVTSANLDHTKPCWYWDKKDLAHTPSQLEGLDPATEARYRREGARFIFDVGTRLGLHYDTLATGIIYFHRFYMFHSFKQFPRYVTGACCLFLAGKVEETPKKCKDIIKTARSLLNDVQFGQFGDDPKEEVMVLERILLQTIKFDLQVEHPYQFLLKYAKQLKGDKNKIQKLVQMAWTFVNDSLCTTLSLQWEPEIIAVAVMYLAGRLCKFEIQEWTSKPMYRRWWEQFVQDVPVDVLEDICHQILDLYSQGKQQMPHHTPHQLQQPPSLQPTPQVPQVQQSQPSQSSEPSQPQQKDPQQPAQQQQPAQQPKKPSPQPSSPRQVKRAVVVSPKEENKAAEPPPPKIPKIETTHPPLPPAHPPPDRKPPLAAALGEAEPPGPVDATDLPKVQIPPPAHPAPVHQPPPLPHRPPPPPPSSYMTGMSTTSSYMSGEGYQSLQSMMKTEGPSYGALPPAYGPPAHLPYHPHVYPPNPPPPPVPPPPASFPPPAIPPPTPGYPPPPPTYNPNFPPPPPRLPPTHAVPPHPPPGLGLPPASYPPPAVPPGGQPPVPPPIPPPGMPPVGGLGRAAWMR
In short: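 Cells grown 24 h, then treated with compounds for 18 h at 37° C against DMSO controls. Lysates (0.4 microgramms protein) run on Protein Simple 66-440 kDa size assay with CDK12 and HSP90 loading-control antibodies. CDK12/HSP90 peak-area ratios versus vehicle gave DC50 (50% reduction) by 4-parameter fit.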

CDK12/CycK = CDK12/CycK (Homo sapiens, UniProt Q9NYV4); assay: CDK12/CycK high ATP kinase assay (TR-FRET, 2 mM ATP); type: biochemical; conditions: 2 mM ATP (high ATP); median; read-out: CDK12/CyclinK, 2 mM ATP (high ATP), IC50-[mol/l] (median)
Sequence of CDK12/CycK (Q9NYV4 with tags, fused parts or gaps): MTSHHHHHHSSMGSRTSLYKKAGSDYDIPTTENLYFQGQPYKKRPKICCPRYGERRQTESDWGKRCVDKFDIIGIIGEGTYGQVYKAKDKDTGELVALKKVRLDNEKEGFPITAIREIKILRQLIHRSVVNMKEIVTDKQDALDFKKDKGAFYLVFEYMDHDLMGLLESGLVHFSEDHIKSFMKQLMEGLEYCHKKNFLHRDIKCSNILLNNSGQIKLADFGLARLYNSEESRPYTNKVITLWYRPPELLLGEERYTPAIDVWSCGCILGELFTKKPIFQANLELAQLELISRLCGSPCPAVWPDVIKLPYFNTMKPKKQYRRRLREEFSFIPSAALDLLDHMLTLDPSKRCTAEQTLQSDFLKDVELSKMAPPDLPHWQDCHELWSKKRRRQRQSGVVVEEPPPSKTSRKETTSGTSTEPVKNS
Sequence of CDK12/CycK (O75909 1-300 partner limits assumed): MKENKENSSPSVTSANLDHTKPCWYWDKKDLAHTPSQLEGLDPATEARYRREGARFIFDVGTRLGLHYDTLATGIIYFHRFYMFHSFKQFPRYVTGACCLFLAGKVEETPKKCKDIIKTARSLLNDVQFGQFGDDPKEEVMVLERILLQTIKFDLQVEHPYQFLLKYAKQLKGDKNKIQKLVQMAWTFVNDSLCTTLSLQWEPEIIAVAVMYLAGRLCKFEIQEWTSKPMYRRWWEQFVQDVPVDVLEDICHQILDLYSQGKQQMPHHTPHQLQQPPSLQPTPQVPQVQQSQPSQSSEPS
In short: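 His-tagged human CDK12/CycK (~0.75 nM) pre-incubated 15 min with compound, then 60 min at 22 °C with 2 mM ATP and 1 µM biotinylated peptide (HEPES pH 7.5, 20 mM MgCl2). EDTA stop; phospho-Ser62 antibody/Eu anti-rabbit and streptavidin-XL665 TR-FRET, 665/620 nm ratio normalised to give IC50.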

SMILES | DC50 [1] | pIC50 (CDK12/CycK)
Brc1cnn2c(NCc3nc4ccccc4[nH]3)nc(N3CCCCC3)nc12 [Example 46, N-[(1H-benzimidazol-2-yl)methyl]-8-bromo-2-(piperidin-1-yl)pyrazolo[1,5-a][1,3,5]triazin-4-amine] | < 0.03 µM | 5.48
Brc1cnn2c(NCc3nc4ccccc4[nH]3)nc(N3CCCC3)nc12 [Example 47, N-[(1H-benzimidazol-2-yl)methyl]-8-bromo-2-(pyrrolidin-1-yl)pyrazolo[1,5-a][1,3,5]triazin-4-amine] | 0.0589 µM | 5.14
Brc1cnn2c(NCc3nc4ccccc4[nH]3)nc(N3CC4(COC4)C3)nc12 [Example 48, N-[(1H-benzimidazol-2-yl)methyl]-8-bromo-2-(2-oxa-6-azaspiro[3.3]heptan-6-yl)pyrazolo[1,5-a][1,3,5]triazin-4-amine] | < 0.03 µM | < 5.24
COc1cccc(-c2nnc(CNc3nc(N4CCOCC4)nc4c(Br)cnn34)[nH]2)c1 [Example 50, 8-bromo-N-{[5-(3-methoxyphenyl)-4H-1,2,4-triazol-3-yl]methyl}-2-(morpholin-4-yl)pyrazolo[1,5-a][1,3,5]triazin-4-amine] | 0.0396 µM | 5.55
Brc1cnn2c(NCc3nnc(-c4ccccn4)[nH]3)nc(N3CCOCC3)nc12 [Example 54, 8-bromo-2-(morpholin-4-yl)-N-{[5-(pyridin-2-yl)-4H-1,2,4-triazol-3-yl]methyl}pyrazolo[1,5-a][1,3,5]triazin-4-amine] | < 0.03 µM | 5.25
CCc1cnn2c(NCc3nc4c(OC)cccc4[nH]3)nc(N3CCOCC3)nc12 [Example 433, 8-ethyl-N-[(4-methoxy-1H-benzimidazol-2-yl)methyl]-2-(morpholin-4-yl)pyrazolo[1,5-a][1,3,5]triazin-4-amine] |  | 5.57
CCc1cnn2c(NCc3nc4ccccc4[nH]3)nc(N3CCN(C)CC3)nc12 [Example 434, N-[(1H-benzimidazol-2-yl)methyl]-8-ethyl-2-(4-methylpiperazin-1-yl)pyrazolo[1,5-a][1,3,5] triazin-4-amine] |  | < 4.75
CN1CCN(c2nc(NCc3nc4ccccc4[nH]3)n3ncc(CC(F)(F)F)c3n2)CC1 [Example 436, N-[(1H-benzimidazol-2-yl)methyl]-2-(4-methylpiperazin-1-yl)-8-(2,2,2-trifluoroethyl)pyrazolo [1,5-a][1,3,5]triazin-4-amine] |  | < 4.70
CN1CCN(c2nc(NCc3nc4c(F)c(F)ccc4[nH]3)n3ncc(CC(F)(F)F)c3n2)CC1 [Example 437, N-[(4,5-difluoro-1H-benzimidazol-2-yl)methyl]-2-(4-methylpiperazin-1-yl)-8-(2,2,2-trifluoroethyl) pyrazolo[1,5-a][1,3,5]triazin-4-amine] |  | < 4.70

Results, then the molecule that gave them:

DC50 [1] | pIC50 (CDK12/CycK) | SMILES
 | < 5.10 | O=C(O)C(F)(F)F.c1ccc2[nH]c(CNc3nc(N4CCOCC4)nc4c(-c5ccnnc5)cnn34)nc2c1 [Example 438, trifluoroacetic acid N-[(1H-benzimidazol-2-yl)methyl]-2-(morpholin-4-yl)-8-(pyridazin-4-yl)pyrazolo[1,5-a][1,3,5]triazin-4-amine]
 | 5.40 | COc1cccc2nc(CNc3nc(N4CCOCC4)nc4c(-c5ccnnc5)cnn34)[nH]c12.O=C(O)C(F)(F)F [Example 439, trifluoroacetic acid N-[(7-methoxy-1H-benzimidazol-2-yl)methyl]-2-(morpholin-4-yl)-8-(pyridazin-4-yl)pyrazolo[1,5-a][1,3,5]triazin-4-amine]
 | < 4.70 | Clc1cc2nc(CNc3nc(N4CCOCC4)nc4c(-c5ccnnc5)cnn34)[nH]c2cc1Cl.O=C(O)C(F)(F)F [Example 440, trifluoroacetic acid N-[(5,6-dichloro-1H-benzimidazol-2-yl)methyl]-2-(morpholin-4-yl)-8-(pyridazin-4-yl)pyrazolo[1,5-a][1,3,5]triazin-4-amine]
 | 5.38 | O=C(O)C(F)(F)F.c1ccc2[nH]c(CNc3nc(N4CCOCC4)nc4c(-c5cncs5)cnn34)nc2c1 [Example 441, trifluoroacetic acid-N-[(1H-benzimidazol-2-yl)methyl]-2-(morpholin-4-yl)-8-(1,3-thiazol-5-yl)pyrazolo[1,5-a][1,3,5]triazin-4-amine (1/1)]
 | 6.23 | Fc1ccc2[nH]c(CNc3nc(N4CCOCC4)nc4c(-c5cncs5)cnn34)nc2c1F.O=C(O)C(F)(F)F [Example 442, trifluoroacetic acid N-[(4,5-difluoro-1H-benzimidazol-2-yl)methyl]-2-(morpholin-4-yl)-8-(1,3-thiazol-5-yl)pyrazolo[1,5-a][1,3,5]triazin-4-amine]
 | 5.40 | Clc1cc2nc(CNc3nc(N4CCOCC4)nc4c(-c5cncs5)cnn34)[nH]c2cc1Cl [Example 443, N-[(5,6-dichloro-1H-benzimidazol-2-yl)methyl]-2-(morpholin-4-yl)-8-(1,3-thiazol-5-yl)pyrazolo[1,5-a][1,3,5]triazin-4-amine]
 | 5.07 | FC(F)Cc1cnn2c(NCc3nc4ccccc4[nH]3)nc(N3CCOCC3)nc12.O=C(O)C(F)(F)F [Example 444, trifluoroacetic acid N-[(1H-benzimidazol-2-yl)methyl]-8-(2,2-difluoroethyl)-2-(morpholin-4-yl)pyrazolo[1,5-a][1,3,5]triazin-4-amine]

Source: US20230117034A1, “PYRAZOLOTRIAZINES” (Bayer Aktiengesellschaft, priority 2019, published 2023)
